Laboratory results reported in patent US11185542B2, “Uses of dopamine beta-hydroxylase (DBH) inhibitors and serotonin receptor (5-HT) antagonists for the treatment of cancer” (Jiangsu Yahong Meditech Co., Ltd., priority 2016, dated 2021).

Legend:
[1] = system: H22 murine hepatocarcinoma cell line; experiment: In vitro cell proliferation assay (CellTiter-Glo) in H22 murine hepatocarcinoma cell line; type: cell-based; details: for anti-proliferative effect on H22 cell line: 1 μM and 0.1, in words; for viability at 0.1 µM / viability at 1 µM: H22, 72 h; for viability at 0.1 µM: read-out: Cell viability (%), 0.1 μM, 72 h, H22 cells; for viability at 1 µM: read-out: Cell viability (%), 1 μM, 72 h, H22 cells
Procedure: Methods: • (1) Cells were cultured in RPMI-1640 medium supplemented with 10% FBS, 100 U/ml penicillin, and […] streptomycin at 37° C. and 5% CO2 atmosphere. […] The anti-proliferative activity of amperozide, nepicastat, and paclitaxel was tested in the H22 murine hepatocarcinoma cell line according to the experimental procedure described in Example 1.

[2] = system: H22 murine hepatic cancer xenograft; experiment: In vivo tumor growth, H22 murine hepatic cancer xenograft model (Example 4); set-up: species or system Mouse (Mus Musculus)
Procedure: (§1) Experiments using the murine H22, CT-26 and EMT-6 xenograft models were performed as described below.
(§2) Cells were cultured in RPMI-1640 medium supplemented with 10% FBS at 37° C. in an atmosphere of 5% CO2 in air. The tumor cells were routinely subcultured three times weekly. The cells that grew in an exponential growth phase were harvested and counted for tumor inoculation.
(§3) Mice (female, 6-8 weeks old) were inoculated subcutaneously at the right flank with the tumor cells (H22, EMT-6, or CT-26) in 0.1 mL PBS for tumor development. When the tumor volume reached approximately 60-80 mm^3, the mice were grouped randomly according to the animal body weight and tumor volume. Each group had 5-8 tumor-bearing mice.
(§4) The major endpoint was to determine if tumor growth could be delayed or mice could be cured. Tumor volume was measured three times weekly in two dimensions using a caliper, and the volume was expressed in mm^3 using the formula: V=0.5 a×b^2, where a and b are the long and short diameters of the tumor, respectively. The T/C value (in percent) was an indication of antitumor effectiveness, where T and C were the mean volume of the treated and control groups, respectively, on a given day. The T-C value was calculated according to TV. T-C was calculated with T as the median time (in days) required for the treatment group tumors to reach a predetermined size (e.g., TV as 1000 mm^3), and C as the median time (in days) for the control group tumors to reach the same size. The body weights were measured and recorded at the same time to observe the toxicity of the compounds. The animals were sacrificed at the termination of the study.
(§5) Summary statistics, including mean and the standard error of the mean (SEM), are provided for the tumor volume of each group at each time point. A two-way analysis of variance (ANOVA) was performed to compare body weight, tumor volume and tumor volume change. A one-way ANOVA was performed to compare tumor weight. All data were analyzed using GraphPad Prism 5. p<0.05 was considered to be statistically significant.
The anti-cancer activity of amperozide and nepicastat was evaluated in a H22 murine hepatic cancer xenograft model according to the experimental procedure described in Example 2. Anti-cancer activity was evaluated by measuring changes in tumor volume.

[3] = clinical dosage of amperozide 10 mg/day; read-out: plasma maximal concentration (Cmax); cited from earlier work
[4] = system: H22 murine hepatic cancer xenograft; experiment: In vivo tumor growth, H22 murine hepatic cancer xenograft model, compared with anti-PD-1 mAb (Example 5); set-up: species or system Mouse (Mus Musculus); details: p.o.; for Tumor Volume (mm^3): QD x 20 days; for T/C (%) / TGI (%) tumor growth inhibition: QD
Procedure: as §1, §2, §3, §4, §5
The anti-cancer activity of nepicastat, etamicastat and anti-PD-1 monoclonal antibody (mAb) was evaluated in a H22 murine hepatic cancer xenograft model according to the experimental procedure described in Example 2.

## CCNC(=O)N1CCN(CCCC(c2ccc(F)cc2)c2ccc(F)cc2)CC1 [Amperozide, amperozide]
[1]
  anti-proliferative effect on H22 cell line: did not show any significant anti-proliferative effects
[1]; Mus musculus
  viability at 0.1 µM: 100%
  viability at 1 µM: 95.1%
[1]; Mus musculus, calculated from FIG. 1, read-out: IC50 in H22 murine hepatocarcinoma cells proliferation
  IC50: 38.8 µM
[2]; Amperozide 2 mg/kg
  T-C (days) (Reach 1000 mm^3): 2 days
[2]; Amperozide 2 mg/kg, day 5
  Tumor Volume: 80 ± 9 mm^3
[2]; Amperozide 2 mg/kg, day 7
  Tumor Volume: 166 ± 19 mm^3
[2]; Amperozide 2 mg/kg, day 9
  Tumor Volume: 355 ± 36 mm^3
[2]; Amperozide 2 mg/kg, day 12
  Tumor Volume: 576 ± 48 mm^3
[2]; Amperozide 2 mg/kg, day 14
  Tumor Volume: 806 ± 31 mm^3
[2]; Amperozide 2 mg/kg, day 16
  Tumor Volume: 1,219 ± 39 mm^3
[2]; Amperozide 2 mg/kg, day 19
  T/C (%): 64.4%
  TGI (%) tumor growth inhibition: 35.6%
  Tumor Volume: 1,948 ± 158 mm^3
[2]; Amperozide 2 mg/kg, day 19, listed as amperozide
  Tumor Volume: 1948 mm^3
[2]; Amperozide 6 mg/kg
  T-C (days) (Reach 1000 mm^3): 1 days
[2]; Amperozide 6 mg/kg, day 5
  Tumor Volume: 80 ± 9 mm^3
[2]; Amperozide 6 mg/kg, day 7
  Tumor Volume: 174 ± 26 mm^3
[2]; Amperozide 6 mg/kg, day 9
  Tumor Volume: 367 ± 51 mm^3
[2]; Amperozide 6 mg/kg, day 12
  Tumor Volume: 602 ± 77 mm^3
[2]; Amperozide 6 mg/kg, day 14
  Tumor Volume: 1,004 ± 75 mm^3
[2]; Amperozide 6 mg/kg, day 16
  Tumor Volume: 1,625 ± 101 mm^3
[2]; Amperozide 6 mg/kg, day 19
  T/C (%): 95.9%
  TGI (%) tumor growth inhibition: 4.1%
  Tumor Volume: 2,903 ± 315 mm^3
[3]
  Cmax: ~100 nM

## NCCc1c[nH]c(=S)n1[C@H]1COc2c(F)cc(F)cc2C1 [Etamicastat, etamicastat]
[4]; Etamicastat 80 mg/kg, day 3
  Tumor Volume (mm^3): 56.40 ± 4.21 mm^3
[4]; Etamicastat 80 mg/kg, day 6
  Tumor Volume (mm^3): 142.74 ± 14.75 mm^3
[4]; Etamicastat 80 mg/kg, day 9
  Tumor Volume (mm^3): 325.41 ± 39.55 mm^3
[4]; Etamicastat 80 mg/kg, day 13
  Tumor Volume (mm^3): 437.62 ± 48.77 mm^3
[4]; Etamicastat 80 mg/kg, day 16
  Tumor Volume (mm^3): 645.29 ± 50.41 mm^3
[4]; Etamicastat 80 mg/kg, day 19
  Tumor Volume (mm^3): 892.56 ± 131.83 mm^3
[4]; Etamicastat 80 mg/kg, day 22
  Tumor Volume (mm^3): 1210.52 ± 197.23 mm^3
  T/C (%): 70.42%
  TGI (%) tumor growth inhibition: 29.58%
[4]; Etamicastat 80 mg/kg, day 22, listed as etamicastat
  Tumor Volume (mm^3): 1,210.52 mm^3
[4]; Etamicastat 160 mg/kg, day 3
  Tumor Volume (mm^3): 56.42 ± 3.25 mm^3
[4]; Etamicastat 160 mg/kg, day 6
  Tumor Volume (mm^3): 134.64 ± 14.18 mm^3
[4]; Etamicastat 160 mg/kg, day 9
  Tumor Volume (mm^3): 270.71 ± 33.96 mm^3
[4]; Etamicastat 160 mg/kg, day 13
  Tumor Volume (mm^3): 513.74 ± 103.91 mm^3
[4]; Etamicastat 160 mg/kg, day 16
  Tumor Volume (mm^3): 825.29 ± 198.51 mm^3
[4]; Etamicastat 160 mg/kg, day 19
  Tumor Volume (mm^3): 1167.51 ± 300.84 mm^3
[4]; Etamicastat 160 mg/kg, day 22
  Tumor Volume (mm^3): 1309.12 ± 492.02 mm^3
  T/C (%): 76.16%
  TGI (%) tumor growth inhibition: 23.84%
[4]; Etamicastat 160 mg/kg, day 22, listed as etamicastat
  Tumor Volume (mm^3): 1,309.12 mm^3

## CC(=O)O[C@H]1C(=O)[C@@]2(C)[C@H]([C@H](OC(=O)c3ccccc3)[C@]3(O)C[C@H](OC(=O)[C@H](O)[C@@H](NC(=O)c4ccccc4)c4ccccc4)C(C)=C1C3(C)C)[C@]1(OC(C)=O)CO[C@@H]1C[C@@H]2O [Paclitaxel]
[1]
  anti-proliferative effect on H22 cell line: strong inhibition effect
[1]; Mus musculus
  viability at 0.1 µM: 28.4%
  viability at 1 µM: 20.8%
[2]; Paclitaxel 15 mg/kg
  T-C (days) (Reach 1000 mm^3): 2 days
[2]; Paclitaxel 15 mg/kg, day 5
  Tumor Volume: 80 ± 9 mm^3
[2]; Paclitaxel 15 mg/kg, day 7
  Tumor Volume: 140 ± 17 mm^3
[2]; Paclitaxel 15 mg/kg, day 9
  Tumor Volume: 270 ± 48 mm^3
[2]; Paclitaxel 15 mg/kg, day 12
  Tumor Volume: 435 ± 60 mm^3
[2]; Paclitaxel 15 mg/kg, day 14
  Tumor Volume: 722 ± 105 mm^3
[2]; Paclitaxel 15 mg/kg, day 16
  Tumor Volume: 1,188 ± 206 mm^3
[2]; Paclitaxel 15 mg/kg, day 19
  T/C (%): 65.5%
  TGI (%) tumor growth inhibition: 34.5%
  Tumor Volume: 1,982 ± 327 mm^3
[2]; Paclitaxel 15 mg/kg, day 19, listed as paclitaxel
  Tumor Volume: 1982 mm^3
